Data taken from US20210341448A1, “SCREENING METHOD FOR THERAPEUTIC DRUG OR PROPHYLACTIC DRUG FOR TAUOPATHY AND DIAGNOSTIC METHOD FOR TAUOPATHY” (National Center for Geriatrics and Gerontology, priority 2018, published 2021).

Columns and labels:
[1] = test system: brain slice specimen (hippocampus/entorhinal cortex complex); assay: Measurement of synapse transmission efficiency (fiber-volley/fEPSP) in brain slice specimens; settings: aging mouse brain slice exposed to 10 μg/ml for 2 to 3 hours, vs aCSF negative control; p<0.0001
Experimental: Brain slice specimens from mice were prepared by the following procedure to evaluate impacts by the tau oligomer on synapse transmission efficiency. 20- to 23-month-old C57BL/6 mice (C57BL/6J or C57BL/6N, male) were cervically dislocated and decapitated to isolate the brain. The obtained brain was thoroughly cooled in aCSF (124 mM of NaCl, 3 mM of KCl, 26 mM of NaHCO3, 1.25 mM of NaH2PO4, 2 mM of CaCl2, 1 mM of MgSO4, 10 mM of D-glucose) bubbled with a 95% O2/5% CO2 mixed gas, then dissected at the center of the cerebrum along the coronal plane, and further the dissected posterior site of the brain was sliced along the horizontal cross sections to a thickness of 350 μm using a vibratome (Leica, VT-1200S). […]
The brain slice specimen was moved to a measurement chamber through which aCSF was perfused, and electric pulse stimulation of 1.5, 2, 3, or 4 nA was applied to record induced potential changes for the measurement of synapse strength from […]. […] The recorded waveform was analyzed using a self-made analysis software to calculate an amplitude of fiber-volley and an amplitude of excitatory postsynaptic potential (fEPSP) at each electric pulse stimulation.

NMDAR = target: T1, NMDAR (Mus musculus, UniProt P35436+P35438+Q01097); assay: Coimmunoprecipitation of tau and NMDAR with anti-tau antibody (TauC); type: binding; settings: tau knockout brain slice exposed to tau oligomer sample, IP: TauC, western blot anti-NR1
T1 construct: from tissue
T1 sequence (P35436 23-1464, other chains not shown): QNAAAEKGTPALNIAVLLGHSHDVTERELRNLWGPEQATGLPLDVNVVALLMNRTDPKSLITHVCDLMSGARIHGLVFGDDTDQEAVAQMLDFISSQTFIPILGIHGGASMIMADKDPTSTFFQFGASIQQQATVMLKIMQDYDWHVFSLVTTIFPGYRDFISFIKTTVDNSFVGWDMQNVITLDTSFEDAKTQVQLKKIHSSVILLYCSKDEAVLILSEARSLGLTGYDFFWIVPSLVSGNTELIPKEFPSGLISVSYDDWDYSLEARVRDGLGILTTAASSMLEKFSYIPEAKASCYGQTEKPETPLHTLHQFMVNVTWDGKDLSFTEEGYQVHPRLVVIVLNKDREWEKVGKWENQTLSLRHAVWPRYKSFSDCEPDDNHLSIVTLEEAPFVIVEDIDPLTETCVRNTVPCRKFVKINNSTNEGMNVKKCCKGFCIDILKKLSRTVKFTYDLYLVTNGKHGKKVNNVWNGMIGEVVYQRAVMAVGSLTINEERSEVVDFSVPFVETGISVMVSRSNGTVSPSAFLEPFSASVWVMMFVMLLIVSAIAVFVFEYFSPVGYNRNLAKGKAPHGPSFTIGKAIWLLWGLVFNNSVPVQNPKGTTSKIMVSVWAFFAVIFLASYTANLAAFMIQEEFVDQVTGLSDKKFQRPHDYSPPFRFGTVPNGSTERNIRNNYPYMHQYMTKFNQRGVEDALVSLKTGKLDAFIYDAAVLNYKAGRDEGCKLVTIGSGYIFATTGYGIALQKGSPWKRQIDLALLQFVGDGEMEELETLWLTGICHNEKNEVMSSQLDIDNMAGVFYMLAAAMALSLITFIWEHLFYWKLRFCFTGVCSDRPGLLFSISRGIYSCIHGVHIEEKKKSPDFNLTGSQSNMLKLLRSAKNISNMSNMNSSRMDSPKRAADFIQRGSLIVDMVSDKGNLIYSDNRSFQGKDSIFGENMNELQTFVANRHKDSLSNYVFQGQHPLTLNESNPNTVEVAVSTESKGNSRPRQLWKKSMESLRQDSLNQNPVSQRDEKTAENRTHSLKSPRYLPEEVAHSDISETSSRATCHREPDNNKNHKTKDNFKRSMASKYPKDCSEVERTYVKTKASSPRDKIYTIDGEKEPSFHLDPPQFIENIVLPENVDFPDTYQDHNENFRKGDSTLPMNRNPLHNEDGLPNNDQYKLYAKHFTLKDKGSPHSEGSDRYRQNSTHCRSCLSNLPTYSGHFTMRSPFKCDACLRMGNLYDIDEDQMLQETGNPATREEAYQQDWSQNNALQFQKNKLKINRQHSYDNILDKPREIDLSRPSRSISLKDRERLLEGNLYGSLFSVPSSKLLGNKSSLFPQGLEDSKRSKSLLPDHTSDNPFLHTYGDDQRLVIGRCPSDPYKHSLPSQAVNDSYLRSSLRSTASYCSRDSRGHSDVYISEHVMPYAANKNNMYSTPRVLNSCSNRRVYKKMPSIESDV
T1 sequence (Q01097 27-1482, other chains not shown): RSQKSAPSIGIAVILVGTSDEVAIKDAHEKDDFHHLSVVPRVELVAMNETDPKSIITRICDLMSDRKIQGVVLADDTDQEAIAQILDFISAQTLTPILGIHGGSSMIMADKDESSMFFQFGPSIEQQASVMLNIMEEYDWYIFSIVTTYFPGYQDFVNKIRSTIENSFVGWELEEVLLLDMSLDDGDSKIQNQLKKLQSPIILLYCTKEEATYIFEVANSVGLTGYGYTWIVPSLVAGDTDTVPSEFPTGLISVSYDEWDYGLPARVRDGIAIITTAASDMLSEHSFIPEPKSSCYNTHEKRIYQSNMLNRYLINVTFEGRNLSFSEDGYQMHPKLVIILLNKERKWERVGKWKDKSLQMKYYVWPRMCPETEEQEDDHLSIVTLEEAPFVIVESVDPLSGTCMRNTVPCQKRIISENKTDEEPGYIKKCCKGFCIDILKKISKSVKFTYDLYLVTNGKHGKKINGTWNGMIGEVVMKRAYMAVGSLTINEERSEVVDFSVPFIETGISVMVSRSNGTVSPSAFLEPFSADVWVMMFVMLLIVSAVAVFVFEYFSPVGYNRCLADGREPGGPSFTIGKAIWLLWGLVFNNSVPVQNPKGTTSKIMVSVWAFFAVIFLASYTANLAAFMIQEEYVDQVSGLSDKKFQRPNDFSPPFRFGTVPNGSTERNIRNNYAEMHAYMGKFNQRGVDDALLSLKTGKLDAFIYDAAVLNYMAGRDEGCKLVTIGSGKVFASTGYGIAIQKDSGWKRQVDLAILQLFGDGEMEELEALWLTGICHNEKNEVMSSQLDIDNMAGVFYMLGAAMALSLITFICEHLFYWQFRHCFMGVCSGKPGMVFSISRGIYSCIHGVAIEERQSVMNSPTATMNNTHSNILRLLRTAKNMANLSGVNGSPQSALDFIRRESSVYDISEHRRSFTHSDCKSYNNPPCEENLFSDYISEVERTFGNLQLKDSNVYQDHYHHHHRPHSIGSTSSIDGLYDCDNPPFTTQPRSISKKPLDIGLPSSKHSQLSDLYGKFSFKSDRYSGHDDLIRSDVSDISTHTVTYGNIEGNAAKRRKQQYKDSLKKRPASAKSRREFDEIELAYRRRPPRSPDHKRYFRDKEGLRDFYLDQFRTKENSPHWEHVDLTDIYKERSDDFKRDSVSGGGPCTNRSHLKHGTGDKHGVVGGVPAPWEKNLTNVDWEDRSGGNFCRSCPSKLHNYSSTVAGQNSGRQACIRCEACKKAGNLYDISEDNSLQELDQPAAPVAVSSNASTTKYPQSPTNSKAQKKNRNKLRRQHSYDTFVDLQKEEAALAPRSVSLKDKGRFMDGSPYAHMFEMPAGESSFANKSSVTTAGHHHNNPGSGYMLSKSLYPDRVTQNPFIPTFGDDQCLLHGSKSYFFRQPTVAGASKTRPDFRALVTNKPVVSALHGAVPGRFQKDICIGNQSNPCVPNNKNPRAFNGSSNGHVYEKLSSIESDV
Experimental: Whether or not the tau oligomers directly bind and interact with NMDARs was tested by the coimmunoprecipitation. The tau-knockout-brain slice specimens exposed to the tau oligomer sample prepared by the procedure of the above (2-1) and (2-2) was homogenized in 50-fold volume of the lysis buffer (4 mM of HEPES, 2 mM of EGTA, 0.32 M of sucrose, 1% Protease Inhibitor Cocktail, 1% Phosphatase Inhibitor Cocktail (Nacalai Tesque Inc., #07575-51)) and was centrifuged at 4° C., 12,000×g for 15 minutes to thereby collect pellets. The obtained pellets were dissolved in a 0.1% Triton X-100/TBS solution (25 mM of Tris-HCl, 150 mM of NaCl, 1 mM of EDTA, 1% NP-40, 5% glycerol, 0.1% Triton X-100, pH 7.4) and the resultant was used as a membrane protein solution. Coimmunoprecipitation on the obtained membrane protein solution was carried out by using an anti-tau antibody (TauC) (Dako, #A0024) (1:2000 dilution) and Pierce Direct Magnetic IP/Co-IP Kit (Thermo Fisher Scientific, #88828), in accordance with the recommended protocol by the kit. The collected coimmunoprecipitation samples were electrophoresed and then NMDAR was detected by the western blot. The antibody used was an anti-NR1 subunit antibody (Merck Millipore, #MAN363) (1:2000 dilution).

“tau oligomer: polymer of human tau 2N4R monomers, polymerized with mouse brain extract and ATP, collected as pellets” was tested, and the “synapse transmission efficiency (fiber-volley/fEPSP ratio)” value [1] was “significantly reduced” and the “coimmunoprecipitation of NR1 subunit with tau” value (NMDAR) was “clear band of the NR1 subunits was detected”.
